Measured values taken from patent US20240327928A1, “METHOD FOR IDENTIFYING RESPONSIVENESS TO FIBROBLAST GROWTH FACTOR RECEPTOR 1 INHIBITOR THERAPY” (UNIVERSITÄT ZU KÖLN, priority 2021, published 2024).

Legend:
[1] = system: FGFR1-amplified squamous cell lung cancer; assay: Patients with FGFR1-amplified squamous cell lung cancer treated with an FGFR inhibitor (phase I clinical trial / off-label use); type: in vivo, human; details: 8 patients treated with BG.J398, phase I clinical trial
Experimental: (§1) Bars are indicated by number (1) (GI50>1 μM) or number (2) (GI50>1 μM) b) Average copy number of 6 cell lines not sensitive upon FGFR inhibition (marked by number (1)) and 2 cell lines which are sensitive upon FGFR inhibition (marked by number (2)). Copy number was extracted from genomic sequencing or whole exome sequencing data and plotted to chromosome 8 (hg19) with ROBOCOP. Location of NSD3 and FGFR1 with grey-backed surface c) Average tumor growth reduction of 8 patient derived xenograft tumor models treated with BG.J398 vs. vehicle. All models were confirmed to be FGFR1 amplified by FGFR1 FISH. Each bar represents an experiment of at least six mice and 12 tumors. Bars are marked by number (1) (tumor reduction of <30%) or by number (2) (tumor reduction of >30%). d) Average copy number of 5 patient derived xenograft tumor models not benefitting from FGFR inhibition (marked by number (1)) and 3 patient derived xenograft tumor (PDX) models which benefit from FGFR inhibition (marked by number (2)). Copy number was extracted from genomic sequencing data and plotted to chromosome 8 (hg19) with ROBOCOP. e) Tumor volume change of patients with squamous cell lung cancer harboring FGFR1 amplification and treated with BG.J398. […]
Finally, the inventors analyzed biopsy specimens obtained from 10 patients with FGFR1-amplified squamous cell lung cancer. […]

[2] = system: FGFR1-amplified lung cancer cell lines; assay: GI50 screening of FGFR1-amplified lung cancer cell lines against FGFR inhibitors (6 resistant lines); type: cell-based; details: 6 of 8 FGFR1-amplified lung cancer cell lines, read-out: half-growth-inhibitory concentration, or GI50
Experimental: as §1, with “(2)).” for “(2)). Copy number was extracted from genomic sequencing data and plotted to chromosome 8 (hg19) with ROBOCOP. e) Tumor volume change of patients with squamous cell lung cancer harboring FGFR1 amplification and treated with BG.J398.”
(§2) To gain a deeper understanding of 8p11-8p12-amplified lung cancer tumors and to link specific patterns of the 8p12-8p11 amplicon structure with FGFR1 dependency, the inventors analyzed an independent cohort of 26 8p-amplified tumor specimens with known sensitivity to FGFR inhibition. […]

DMS114 = assay: GI50 screening of FGFR1-amplified lung cancer cell lines against FGFR inhibitors; type: cell-based; details: Homo sapiens, DMS-114; sensitive cell line DMS114; read-out: half-growth-inhibitory concentration, or GI50
Experimental: as §1, with “(2)).” for “(2)). Copy number was extracted from genomic sequencing data and plotted to chromosome 8 (hg19) with ROBOCOP. e) Tumor volume change of patients with squamous cell lung cancer harboring FGFR1 amplification and treated with BG.J398.”
as §2

H1581 = assay: as above; type: cell-based; details: Homo sapiens, NCI-H1581; sensitive cell line H1581; read-out: half-growth-inhibitory concentration, or GI50
Experimental: as §1, with “(2)).” for “(2)). Copy number was extracted from genomic sequencing data and plotted to chromosome 8 (hg19) with ROBOCOP. e) Tumor volume change of patients with squamous cell lung cancer harboring FGFR1 amplification and treated with BG.J398.”
as §2

[3] = system: FGFR1 amplified patient derived xenograft (PDX) models of squamous cell lung cancer; assay: Patient derived xenograft tumor models treated with BG.J398 vs. vehicle; type: in vivo, mice; details: 20 mg/kg daily oral
Experimental: Bars are indicated by number (1) (GI50>1 μM) or number (2) (GI50>1 μM) b) Average copy number of 6 cell lines not sensitive upon FGFR inhibition (marked by number (1)) and 2 cell lines which are sensitive upon FGFR inhibition (marked by number (2)). Copy number was extracted from genomic sequencing or whole exome sequencing data and plotted to chromosome 8 (hg19) with ROBOCOP. Location of NSD3 and FGFR1 with grey-backed surface c) Average tumor growth reduction of 8 patient derived xenograft tumor models treated with BG.J398 vs. vehicle. All models were confirmed to be FGFR1 amplified by FGFR1 FISH. Each bar represents an experiment of at least six mice and 12 tumors. Bars are marked by number (1) (tumor reduction of <30%) or by number (2) (tumor reduction of >30%). d) Average copy number of 5 patient derived xenograft tumor models not benefitting from FGFR inhibition (marked by number (1)) and 3 patient derived xenograft tumor (PDX) models which benefit from FGFR inhibition (marked by number (2)). Copy number was extracted from genomic sequencing data and plotted to chromosome 8 (hg19) with ROBOCOP. e) Tumor volume change of patients with squamous cell lung cancer harboring FGFR1 amplification and treated with BG.J398. Tumor volume change was measured by RECIST criteria. […] TUM003 and TUM007 died during treatment and no sign of response. * labeled sample was an of label FGFR inhibitor treated patient where no RECIST data were available. f) Average copy number of 5 patients with progressive disease (marked by number (2)) and 4 patients with durable, partial response upon FGFR inhibition (marked by number (1), one patient was treated with an off label used FGFR inhibitor (GW786034 HCl). […]
Furthermore, the inventors analysed patient-derived 8p12-8p11-amplified squamous cell lung cancer xenotransplant models. In total, the inventors performed FGFR1 fluorescence in situ hybridization (FISH) on 35 patient derived xenograft (PDX) models from EpoBerlin, 39 PDX models from Crown Bioscience Inc., 3 samples of Moro Massimo as previously described. […]

[4] = system: Ba/F3 cells expressing ΔEC-FGFR1; assay: Screening of Ba/F3 cells expressing ΔEC-FGFR1 with FGFR inhibitors (cellular ATP content after 96 hours); type: cell-based, murine; details: IL3 depleted conditions
From the text: Located genes in this region (middle, bottom; positive strand, negative strand), break coverage (top), location of tail-to-tail breaks (arrows and black dashed lines) are shown. Normal exon structure of NSD3 and FGFR1 with the genomic breaks are indicated by an asterisk independent of the chromosomal position shown above (bottom). b) Resulting rearrangement of the t-to-t break (dashed lines, top) and spanning reads from whole transcriptome sequencing data (bottom) is shown. c) PCR from corresponding cDNA with two different primer pairs, spanning the t-to-t break and FGFR1 (left) and matched normal cDNA (right) d) Hybrid-capture-based genomic sequencing (468×depth) copy number plot zoomed to the location of FGFR1 (middle). Tumor sample is from a patient with unknown response upon FGFR inhibition. Normal exon structure of FGFR1 (bottom), location of a tail-to-tail break (arrows), and break coverage (top) is shown. e) The resulting rearrangement of the t-to-t break is shown (dashed lines). f) Break spanning reads detected by ARCHER sequencing technique are indicated. g) Immunoblotting of transformed Baf3 cells (Baf3 FGFR1 AEC and Baf3 EML4-ALK as control) vs. non-transformed Baf3 cells transduced with empty Vector (Baf3 e.V.), FGFR1 alpha (Baf3 FGFR1aplpa), and FGFR1 beta (Baf3 FGFR1beta). […]

CCN1CCN(c2ccc(Nc3cc(N(C)C(=O)Nc4c(Cl)c(OC)cc(OC)c4Cl)ncn3)cc2)CC1 [BG.J398]
patients with durable, partial response (tumor volume change by RECIST) [1]: 3 patients | patients with progressive disease (tumor volume change by RECIST) [1]: 5 patients | GI50 [2]: > 1 µM | GI50 (DMS114): < 1 µM | GI50 (H1581): < 1 µM | Average tumor growth reduction vs. vehicle ([3]; 3 PDX models which benefit, bars (2)): > 30% | Average tumor growth reduction vs. vehicle ([3]; 5 PDX models not benefitting, bars (1)): < 30% | PDX models sensitive to FGFR inhibition ([3]; 8 FGFR1 amplified PDX models): Three of the 8 patient derived xenotransplant (PDX) models were sensitive | sensitivity to FGFR inhibition [4]: highly sensitive

AZD4547
sensitivity to FGFR inhibition [4]: highly sensitive
